Data on twelve compounds can be found in patent US20260242419A1, “A CYCLIC PEPTIDE FOR TRAPPING INTERLEUKIN-1 BETA” (Merck Sharp & Dohme LLC, priority 2023, published 2026).

Starred links: 1 amine or outer side, 2 acyl side, 3 side chain; linkers in the order of their positions; H or OH if unused. Non-standard residues stand in square brackets, D forms with d. Residues, ends and D or L forms follow the SMILES beside them. dPro(4R-(4-pyridylmethyl)) = O=C(O)[C@H]1C[C@@H](Cc2ccncc2)CN1; Ala(piperidin-4-yl) = O=C([C@H](CC1CCN([*:3])CC1)N[*:1])[*:2]; Trp(βS-Me,4-F) = C[C@@H](c1c[nH]c2cccc(F)c12)[C@H](N)C(=O)O; Bip(4'-COOH) = N[C@@H](Cc1ccc(-c2ccc(C(=O)O)cc2)cc1)C(=O)O; Ala(1-bicyclo(1.1.1)pentyl) = N[C@@H](CC12CC(C1)C2)C(=O)O; dPro(4R-Bzl(4-F)) = O=C(O)[C@H]1C[C@@H](Cc2ccc(F)cc2)CN1; Ala(morpholin-4-yl) = N[C@@H](CN1CCOCC1)C(=O)O; Ala(piperazin-1-yl) = N[C@@H](CN1CCNCC1)C(=O)O; Ala(pyrimidin-5-yl) = N[C@@H](Cc1cncnc1)C(=O)O; Phe(4-COOH) = N[C@@H](Cc1ccc(C(=O)O)cc1)C(=O)O; Pro(cis-4-F) = O=C(O)[C@@H]1C[C@H](F)CN1; cisHyp = O=C(O)[C@@H]1C[C@H](O)CN1; d(αMeD) = C[C@@](N)(CC(=O)O)C(=O)O; 4Pal = N[C@@H](Cc1ccncc1)C(=O)O; Cba = N[C@@H](CC1CCC1)C(=O)O; αMeK = C[C@](N)(CCCCN)C(=O)O; Dab = NCC[C@H](N)C(=O)O; Aib = CC(C)(N)C(=O)O

The experiment addresses T1, IL-1β (Homo sapiens, UniProt P01584).
T1 construct: purchased BioLegend 579404
Put plainly: IL-6 assay in MRC5 cells: inhibition of IL-1β induced IL-6 secretion (AlphaLISA). The conditions noted are these: inhibition of IL-1β induced IL-6 secretion in MRC5 cells; read-out: MRC5 IC50. Format: cell-based. The essentials:
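Compound was pre-incubated 1 h at ambient temperature with recombinant human IL-1β at 2λ EC80 before adding human lung fibroblast MRC5 cells (3000/well) in EMEM with 0.025% BSA. After overnight culture at 37 °C, 5% CO2, secreted IL-6 in conditioned medium was measured by AlphaLISA; IC50 from 4-parameter logistic fits.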
For orientation: Bead proximity is the source of the signal in Alpha formats.

T1 sequence (P01584 117-269): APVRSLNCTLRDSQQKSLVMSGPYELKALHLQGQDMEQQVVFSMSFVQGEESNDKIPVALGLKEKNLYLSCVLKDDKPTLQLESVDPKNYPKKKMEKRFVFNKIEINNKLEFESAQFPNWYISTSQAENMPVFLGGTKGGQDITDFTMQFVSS

Turning to `C[C@@H](c1c[nH]c2cccc(F)c12)[C@@H]1NC(=O)[C@@H]2C[C@H](F)CN2C(=O)CNC(=O)[C@H](Cc2ccc(C(=O)O)cc2)NC(=O)[C@H](Cc2ccncc2)NC(=O)[C@H](Cc2ccc(-c3ccc(C(=O)O)cc3)cc2)NC(=O)[C@H]2C[C@@H](Cc3ccncc3)CN2C(=O)CNC(=O)[C@H](CO)NC(=O)[C@H](CCC(N)=O)NC(=O)[C@H](Cc2cncnc2)NC(=O)[C@@](C)(CC(=O)O)NC(=O)[C@H](Cc2c[nH]c3ccccc23)NC(=O)[C@H](CO)NC(=O)C(C)(C)NC1=O` [Example 156] (cyclo([Bip(4'-COOH)][4Pal][Phe(4-COOH)]G[Pro(cis-4-F)][Trp(βS-Me,4-F)][Aib]SW[d(αMeD)][Ala(pyrimidin-5-yl)]QSG[dPro(4R-(4-pyridylmethyl))])), the IC50 was 0.015 nM.

Take `C[C@@H](c1c[nH]c2cccc(F)c12)[C@@H]1NC(=O)[C@@H]2C[C@H](O)CN2C(=O)CNC(=O)[C@H](Cc2ccc(C(=O)O)cc2)NC(=O)[C@H](CC23CC(C2)C3)NC(=O)[C@H](Cc2ccc(-c3ccc(C(=O)O)cc3)cc2)NC(=O)[C@H]2C[C@@H](Cc3ccncc3)CN2C(=O)CNC(=O)[C@H](CO)NC(=O)[C@H](CCC(N)=O)NC(=O)[C@H](Cc2cncnc2)NC(=O)[C@@](C)(CC(=O)O)NC(=O)[C@H](Cc2c[nH]c3ccccc23)NC(=O)[C@H](CO)NC(=O)C(C)(C)NC1=O` [Example 157] (cyclo([Bip(4'-COOH)][Ala(1-bicyclo(1.1.1)pentyl)][Phe(4-COOH)]G[cisHyp][Trp(βS-Me,4-F)][Aib]SW[d(αMeD)][Ala(pyrimidin-5-yl)]QSG[dPro(4R-(4-pyridylmethyl))])): the 50% inhibitory concentration (IC50) was 0.038 nM. Take `C[C@@H](c1c[nH]c2cccc(F)c12)[C@@H]1NC(=O)[C@@H]2C[C@H](F)CN2C(=O)CNC(=O)[C@H](Cc2ccc(C(=O)O)cc2)NC(=O)[C@H](CC23CC(C2)C3)NC(=O)[C@H](Cc2ccc(-c3ccc(C(=O)O)cc3)cc2)NC(=O)[C@H]2C[C@@H](Cc3ccncc3)CN2C(=O)CNC(=O)[C@H](CO)NC(=O)[C@H](CCC(N)=O)NC(=O)[C@H](Cc2cncnc2)NC(=O)[C@@](C)(CC(=O)O)NC(=O)[C@H](Cc2c[nH]c3ccccc23)NC(=O)[C@H](CO)NC(=O)C(C)(C)NC1=O` [Example 158] (cyclo([Bip(4'-COOH)][Ala(1-bicyclo(1.1.1)pentyl)][Phe(4-COOH)]G[Pro(cis-4-F)][Trp(βS-Me,4-F)][Aib]SW[d(αMeD)][Ala(pyrimidin-5-yl)]QSG[dPro(4R-(4-pyridylmethyl))])): the concentration for half-maximal inhibition (IC50) is 0.013 nM. The figure for `C[C@@H](c1c[nH]c2cccc(F)c12)[C@@H]1NC(=O)[C@@H]2C[C@H](O)CN2C(=O)CNC(=O)[C@H](Cc2ccc(C(=O)O)cc2)NC(=O)[C@H](Cc2ccncc2)NC(=O)[C@H](Cc2ccc(-c3ccc(C(=O)O)cc3)cc2)NC(=O)[C@H]2C[C@@H](Cc3ccncc3)CN2C(=O)CNC(=O)[C@H](CCN)NC(=O)[C@H](CCC(N)=O)NC(=O)[C@H](Cc2cncnc2)NC(=O)[C@@](C)(CC(=O)O)NC(=O)[C@H](Cc2c[nH]c3ccccc23)NC(=O)[C@H](CO)NC(=O)C(C)(C)NC1=O` [Example 159] (cyclo([Bip(4'-COOH)][4Pal][Phe(4-COOH)]G[cisHyp][Trp(βS-Me,4-F)][Aib]SW[d(αMeD)][Ala(pyrimidin-5-yl)]Q[Dab]G[dPro(4R-(4-pyridylmethyl))])) is 0.013 nM; for `C[C@@H](c1c[nH]c2cccc(F)c12)[C@@H]1NC(=O)[C@@H]2C[C@H](O)CN2C(=O)CNC(=O)[C@H](Cc2ccc(C(=O)O)cc2)NC(=O)[C@H](CC23CC(C2)C3)NC(=O)[C@H](Cc2ccc(-c3ccc(C(=O)O)cc3)cc2)NC(=O)[C@H]2C[C@@H](Cc3ccncc3)CN2C(=O)CNC(=O)[C@H](CCN)NC(=O)[C@H](CCC(N)=O)NC(=O)[C@H](Cc2cncnc2)NC(=O)[C@@](C)(CC(=O)O)NC(=O)[C@H](Cc2c[nH]c3ccccc23)NC(=O)[C@H](CO)NC(=O)C(C)(C)NC1=O` [Example 160] (cyclo([Bip(4'-COOH)][Ala(1-bicyclo(1.1.1)pentyl)][Phe(4-COOH)]G[cisHyp][Trp(βS-Me,4-F)][Aib]SW[d(αMeD)][Ala(pyrimidin-5-yl)]Q[Dab]G[dPro(4R-(4-pyridylmethyl))])) it is 0.023 nM; for `C[C@@H](c1c[nH]c2cccc(F)c12)[C@@H]1NC(=O)[C@@H]2C[C@H](O)CN2C(=O)CNC(=O)[C@H](Cc2ccc(C(=O)O)cc2)NC(=O)[C@H](Cc2ccncc2)NC(=O)[C@H](Cc2ccc(-c3ccc(C(=O)O)cc3)cc2)NC(=O)[C@H]2C[C@@H](Cc3ccncc3)CN2C(=O)CNC(=O)[C@H](CO)NC(=O)[C@H](CCC(N)=O)NC(=O)[C@H](Cc2cncnc2)NC(=O)[C@@](C)(CC(=O)O)NC(=O)[C@H](Cc2c[nH]c3ccccc23)NC(=O)[C@H](CO)NC(=O)C(C)(C)NC1=O` [Example 161] (cyclo([Bip(4'-COOH)][4Pal][Phe(4-COOH)]G[cisHyp][Trp(βS-Me,4-F)][Aib]SW[d(αMeD)][Ala(pyrimidin-5-yl)]QSG[dPro(4R-(4-pyridylmethyl))])) it is 0.019 nM. Regarding `C[C@@H](c1c[nH]c2cccc(F)c12)[C@@H]1NC(=O)[C@@H]2C[C@H](F)CN2C(=O)CNC(=O)[C@H](Cc2ccc(C(=O)O)cc2)NC(=O)[C@H](CC2CCC2)NC(=O)[C@H](Cc2ccc(-c3ccc(C(=O)O)cc3)cc2)NC(=O)[C@H]2C[C@@H](Cc3ccncc3)CN2C(=O)CNC(=O)[C@H](CCN)NC(=O)[C@H](CCC(N)=O)NC(=O)[C@H](Cc2cncnc2)NC(=O)C(C)(C)NC(=O)[C@H](Cc2c[nH]c3ccccc23)NC(=O)[C@H](CO)NC(=O)C(C)(C)NC1=O` [Example 163] (cyclo([Bip(4'-COOH)][Cba][Phe(4-COOH)]G[Pro(cis-4-F)][Trp(βS-Me,4-F)][Aib]SW[Aib][Ala(pyrimidin-5-yl)]Q[Dab]G[dPro(4R-(4-pyridylmethyl))])), the 50% inhibitory concentration (IC50) worked out at 0.03 nM. The figure for `C[C@@H](c1c[nH]c2cccc(F)c12)[C@@H]1NC(=O)[C@@H]2C[C@H](O)CN2C(=O)CNC(=O)[C@H](Cc2ccc(C(=O)O)cc2)NC(=O)[C@H](CC2CCC2)NC(=O)[C@H](Cc2ccc(-c3ccc(C(=O)O)cc3)cc2)NC(=O)[C@H]2C[C@@H](Cc3ccncc3)CN2C(=O)CNC(=O)[C@H](CCN)NC(=O)[C@H](CCC(N)=O)NC(=O)[C@H](Cc2cncnc2)NC(=O)[C@@](C)(CC(=O)O)NC(=O)[C@H](Cc2c[nH]c3ccccc23)NC(=O)[C@H](CO)NC(=O)C(C)(C)NC1=O` [Example 164] (cyclo([Bip(4'-COOH)][Cba][Phe(4-COOH)]G[cisHyp][Trp(βS-Me,4-F)][Aib]SW[d(αMeD)][Ala(pyrimidin-5-yl)]Q[Dab]G[dPro(4R-(4-pyridylmethyl))])) is 0.039 nM; for `C[C@@H](c1c[nH]c2cccc(F)c12)[C@@H]1NC(=O)[C@@H]2C[C@H](F)CN2C(=O)CNC(=O)[C@H](Cc2ccc(C(=O)O)cc2)NC(=O)[C@H](CC23CC(C2)C3)NC(=O)[C@H](Cc2ccc(-c3ccc(C(=O)O)cc3)cc2)NC(=O)[C@H]2C[C@@H](Cc3ccc(F)cc3)CN2C(=O)CNC(=O)[C@H](CCN)NC(=O)[C@H](CCC(N)=O)NC(=O)[C@H](CN2CCOCC2)NC(=O)[C@](C)(CCCCN)NC(=O)[C@H](Cc2c[nH]c3ccccc23)NC(=O)[C@H](CCC(=O)O)NC(=O)C(C)(C)NC1=O` [Example 165] (cyclo([Bip(4'-COOH)][Ala(1-bicyclo(1.1.1)pentyl)][Phe(4-COOH)]G[Pro(cis-4-F)][Trp(βS-Me,4-F)][Aib]EW[αMeK][Ala(morpholin-4-yl)]Q[Dab]G[dPro(4R-Bzl(4-F))])) it is 0.022 nM. The value for `C[C@@H](c1c[nH]c2cccc(F)c12)[C@@H]1NC(=O)[C@@H]2C[C@H](F)CN2C(=O)CNC(=O)[C@H](Cc2ccc(C(=O)O)cc2)NC(=O)[C@H](CC23CC(C2)C3)NC(=O)[C@H](Cc2ccc(-c3ccc(C(=O)O)cc3)cc2)NC(=O)[C@H]2C[C@@H](Cc3ccc(F)cc3)CN2C(=O)CNC(=O)[C@H](CCN)NC(=O)[C@H](CCC(N)=O)NC(=O)[C@H](CC2CCNCC2)NC(=O)[C@](C)(CCCCN)NC(=O)[C@H](Cc2c[nH]c3ccccc23)NC(=O)[C@H](CCC(=O)O)NC(=O)C(C)(C)NC1=O` [Example 166] (cyclo([Bip(4'-COOH)][Ala(1-bicyclo(1.1.1)pentyl)][Phe(4-COOH)]G[Pro(cis-4-F)][Trp(βS-Me,4-F)][Aib]EW[αMeK][Ala(piperidin-4-yl)]Q[Dab]G[dPro(4R-Bzl(4-F))])) was 0.039 nM; that for `C[C@@H](c1c[nH]c2cccc(F)c12)[C@@H]1NC(=O)[C@@H]2C[C@H](F)CN2C(=O)CNC(=O)[C@H](Cc2ccc(C(=O)O)cc2)NC(=O)[C@H](CC23CC(C2)C3)NC(=O)[C@H](Cc2ccc(-c3ccc(C(=O)O)cc3)cc2)NC(=O)[C@H]2C[C@@H](Cc3ccc(F)cc3)CN2C(=O)CNC(=O)[C@H](CCN)NC(=O)[C@H](CCC(N)=O)NC(=O)[C@H](CN2CCOCC2)NC(=O)C(C)(C)NC(=O)[C@H](Cc2c[nH]c3ccccc23)NC(=O)[C@H](CO)NC(=O)C(C)(C)NC1=O` [Example 167] (cyclo([Bip(4'-COOH)][Ala(1-bicyclo(1.1.1)pentyl)][Phe(4-COOH)]G[Pro(cis-4-F)][Trp(βS-Me,4-F)][Aib]SW[Aib][Ala(morpholin-4-yl)]Q[Dab]G[dPro(4R-Bzl(4-F))])) was 0.013 nM; that for `C[C@@H](c1c[nH]c2cccc(F)c12)[C@@H]1NC(=O)[C@@H]2C[C@H](F)CN2C(=O)CNC(=O)[C@H](Cc2ccc(C(=O)O)cc2)NC(=O)[C@H](CC23CC(C2)C3)NC(=O)[C@H](Cc2ccc(-c3ccc(C(=O)O)cc3)cc2)NC(=O)[C@H]2C[C@@H](Cc3ccc(F)cc3)CN2C(=O)CNC(=O)[C@H](CCN)NC(=O)[C@H](CCC(N)=O)NC(=O)[C@H](CN2CCNCC2)NC(=O)C(C)(C)NC(=O)[C@H](Cc2c[nH]c3ccccc23)NC(=O)[C@H](CO)NC(=O)C(C)(C)NC1=O` [Example 168] (cyclo([Bip(4'-COOH)][Ala(1-bicyclo(1.1.1)pentyl)][Phe(4-COOH)]G[Pro(cis-4-F)][Trp(βS-Me,4-F)][Aib]SW[Aib][Ala(piperazin-1-yl)]Q[Dab]G[dPro(4R-Bzl(4-F))])) was 0.018 nM.

Usually IC50 stands for the point on the concentration scale where inhibition reaches its midpoint.
